Marks after values point to notes of the source that are not given here.
Test system: beef feedlot cattle
Assay: 56-d study: carcass characteristics
Assay type: in vivo
Set-up: Marbling score, difference from control: scale not given here
Settings: for YG 1, proportion of cattle graded / YG 2, proportion of cattle graded / YG 3, proportion of cattle graded / YG 4, proportion of cattle graded / YG 5, proportion of cattle graded: arithmetic mean; for Adjusted fat thickness / Dressing percentage / KPH fat / Ribeye Area / Yield grade / carcass weight (HCW) / Marbling score: 56 d treatment, steers, LS mean; for Marbling score: 400 Small, 500 Modest, 600 Moderate
Procedure: LUB was removed from feed at least 24 h before harvest to comply with the Food Use Authorization (FDA, 2016) granted by the FDA. Cattle were loaded for harvest shortly after collection of final pen live weights and transported to the slaughter facility at a stocking density of approximately 30 steers (i.e., half a pen of 60 steers) in one semi-trailer. The slaughter process was conducted in accordance with USDA requirements and standard slaughter site procedures. Animal/carcass identification was maintained by sequentially recording the ear tag numbers of cattle as they were slaughtered via a sequence number affixed to each carcass by trained personnel from the Beef Carcass Research Center (BCRC; West Texas A&M University, Canyon, TX) and correlating the individual ear tag number to the plant-assigned carcass ID number, which remained intact throughout the carcass data/sample collection phase. Following an industry-standard dressing procedure, each carcass was weighed for determination of HCW.
Carcass evaluation occurred following the commercial plant's standard chilling period. The carcass quality and yield grade factors, marbling score, ribeye area, and objective 12th rib fat thickness were captured objectively using the VBG2000 camera system. Additionally, adjusted 12th rib fat thickness, kidney, pelvic, and heart (KPH) fat assessment, and other defects (dark cutters, blood splash, etc.) were recorded by trained personnel (BCRC). Skeletal maturity was obtained only on carcasses that were “B” maturity or greater, otherwise, skeletal, lean, and overall maturity and lean color were not obtained.
Carcass defects (dark cutters, excessive trim) were noted by exception. The objective fat thickness was used to calculate the USDA yield grade. All carcasses were considered to be less than 30 mo of age; therefore, USDA quality grade was determined by using marbling score (USDA, 2019). The severity of the dark cutting condition was indicated by assigning the dark cutting carcasses to ⅓, ⅔, or full dark categories. Dark cutters were not excluded when determining quality grade, however, a summary of the frequency of dark cutter carcasses by treatment group is provided. Carcasses identified as excessively trimmed (greater than approximately 9.1 kg trim) were not excluded from the analysis, however, a summary of the frequency of excessively trimmed carcasses by treatment group is provided.
The label claim variable of cumulative NH3 gas emissions over the treatment period normalized by final BW (with d −59 BW as a covariate) for the period and HCW (g of gas kg^−1 of BW or g of gas kg^−1 HCW) was determined by utilizing NH3 gas emissions equations developed from the LUB clinical effectiveness study (FDA-FOI, 2018) and validated using animals of similar BW as described by Brown et al. (2019). The pen was the experimental unit for each outcome. Differences were deemed significant using a two-sided test at Ptrt≤0.05, however, a less stringent significance threshold of Ptrt≤0.10 was used for abnormal health observations. Fixed effect of treatment and random effects of time replicate and block within time replicate were included in the model. Discrete variables were analyzed using a generalized linear mixed model, Proc GLIMMIX SAS version 9.4 unless there were convergence problems due to sparseness of data. A binomial distribution was assumed and a logit link used in the analysis. Contrasts were constructed between the CON group and each non-CON dosage group, and differences were deemed significant at Pdose≤0.05. If convergence problems arose due to sparseness of data, Fisher's exact test (binomial data; Proc FREQ in SAS) or Wilcoxon's rank-sum test (categorical data; Proc NARIWAY in SAS) was used to evaluate differences between the CON group and the non-CON dosage groups. In all cases except for health observations, differences were deemed significant at Ptrt≤0.05 for these primary discrete variables. […]

[1] = 3.5 and 5.5 mg kg^−1 LUB groups, 56 d, Ptrt≤0.05
[2] = all LUB groups, 56 d, Ptrt≤0.05

## CC(C)(Cc1ccc(Oc2ncccc2C#N)cc1)NC[C@H](O)COc1ccccc1-c1cccs1 [LUB, 2-{4-[2-({(2S)-2-Hydroxy-3-[2-(2-thienyl)phenoxy]propyl}amino)-2-methylpropyl]phenoxy}nicotinonitrile]
1.5 mg kg^−1 LUB group, 56 d
  Frequency of dark cutter carcasses: 0.6%
  Frequency of excessively trimmed carcasses: 1.4%
1.5 mg·kg^−1 DM LUB, 56 d
  YG 1, proportion of cattle graded: 5.4%
  YG 2, proportion of cattle graded: 25.8^x %
  YG 3, proportion of cattle graded: 49.0%
  YG 4, proportion of cattle graded: 17.1^y %
  YG 5, proportion of cattle graded: 2.7%
1.5 mg·kg^−1 vs. control, 56 d
  KPH fat, difference from control: 0.01%
  Marbling score, difference from control: −13.0
  Marbling score, percent change from Control: −2.8%
  Ribeye area, difference from control: 3.3 cm^2
  Ribeye area, percent change from Control: 3.5%
  carcass weight (HCW), difference from control: 11.3 kg
  carcass weight (HCW), percent change from Control: 2.8%
3.5 mg kg^−1 LUB group, 56 d
  Frequency of dark cutter carcasses: 0.3%
  Frequency of excessively trimmed carcasses: 1.8%
3.5 mg·kg^−1 DM LUB, 56 d
  YG 1, proportion of cattle graded: 5.5%
  YG 2, proportion of cattle graded: 31.5^y %
  YG 3, proportion of cattle graded: 44.0%
  YG 4, proportion of cattle graded: 17.3^y %
  YG 5, proportion of cattle graded: 1.7%
3.5 mg·kg^−1 vs. control, 56 d
  KPH fat, difference from control: 0.01%
  Marbling score, difference from control: −23.0
  Marbling score, percent change from Control: −4.9%
  Ribeye area, difference from control: 5.4 cm^2
  Ribeye area, percent change from Control: 5.8%
  carcass weight (HCW), difference from control: 15.9 kg
  carcass weight (HCW), percent change from Control: 3.9%
5.5 mg kg^−1 LUB group, 56 d
  Frequency of dark cutter carcasses: 0.1%
  Frequency of excessively trimmed carcasses: 1.4%
5.5 mg·kg^−1 DM LUB, 56 d
  YG 1, proportion of cattle graded: 6.2%
  YG 2, proportion of cattle graded: 31.6^y %
  YG 3, proportion of cattle graded: 44.2%
  YG 4, proportion of cattle graded: 16.0^y %
  YG 5, proportion of cattle graded: 2.0%
5.5 mg·kg^−1 vs. control, 56 d
  KPH fat, difference from control: 0.03%
  Marbling score, difference from control: −27.0
  Marbling score, percent change from Control: −5.7%
  Ribeye area, difference from control: 5.7 cm^2
  Ribeye area, percent change from Control: 6.1%
  carcass weight (HCW), difference from control: 17.1 kg
  carcass weight (HCW), percent change from Control: 4.2%
[1]
  Proportion of carcasses grading Select compared to CON: increased
  Yield grade 2 compared to CON: increased
LUB 1.5 mg·kg^−1 DM
  Adjusted fat thickness: 1.53 cm
  Dressing percentage: 61.8%
  KPH fat: 2.12%
  Ribeye Area: 97.0 cm^2
  Yield grade: 3.14
  carcass weight (HCW): 418.3 kg
  Marbling score: 460
LUB 3.5 mg·kg^−1 DM
  Adjusted fat thickness: 1.48 cm
  Dressing percentage: 62.1%
  KPH fat: 2.12%
  Ribeye Area: 99.1 cm^2
  Yield grade: 3.02
  carcass weight (HCW): 423.9 kg
  Marbling score: 450
LUB 5.5 mg·kg^−1 DM
  Adjusted fat thickness: 1.48 cm
  Dressing percentage: 62.3%
  KPH fat: 2.14%
  Ribeye Area: 99.4 cm^2
  Yield grade: 3.01
  carcass weight (HCW): 425.1 kg
[2]
  Proportion of carcasses grading Upper 2/3 Choice compared to CON: decreased
  Yield grade 4 compared to CON: decreased

From patent US20260048046A1, “METHOD FOR IMPROVING GROWTH PERFORMANCE IN FEEDLOT CATTLE” (Elanco US Inc., priority 2022, published 2026)
